assay: in vitro; conditions: human, hela cells, % viability

Compound | viability at 28.5 h, 10 µM [%]
O=C(c1cccnc1)N1CCN(Cc2cccc(Oc3ccccc3)c2)CC1 [CBK263326G] | 101
COc1ccc(Br)cc1CN(CCc1ccc2c(c1)OCO2)Cc1cccnc1 [CBK263327G] | 96.8
Cc1cc(/C=N/NC(=O)c2ccc(CN3CCOCC3)cc2)c(C)n1-c1ccccc1 [CBK263329] | 100
COc1ccc(S(=O)(=O)N2CCN(Cc3cc(OC)c(OC)c(OC)c3)CC2)cc1 [CBK263330] | 89.3
CCOC(=O)C1CCN(Cn2nc(O)ccc2=O)CC1 [CBK263331] | 90.7
CCN(CC)CCSc1nc(O)c(-c2ccccc2)c(=O)n1-c1ccccc1 [CBK263335C] | 111
O=C(O)c1cc(NC(=O)c2cccc(N3C(=O)c4ccccc4C3=O)c2)cc(C(=O)O)c1 [CBK263338] | 96.8
C=CCSc1nnc(CSc2nc3sc4c(c3c(=O)[nH]2)CCCC4)n1-c1ccccc1 [CBK263341] | 94.4
COc1ccc(/C=C(/NC(=O)c2cccc(Cl)c2)C(=O)Nc2ccccc2)cc1 [CBK263342] | 107
O=C(O)/C(=C\c1ccccc1)NC(=O)c1cccc([N+](=O)[O-])c1 [CBK263348] | 96.3
O=C(CN1CCCCC1)Nc1c(-c2ccccc2)c2cc(Br)ccc2[nH]c1=O [CBK263351] | 94.7
COc1ccc(C2C(C(=O)c3ccccc3)=C(O)C(=O)N2CCN(C)C)cc1OC (stereo not shown) [CBK263352] | 119
COc1ccc(S(=O)(=O)N2CCN(C(=O)COc3ccc(C)cc3)CC2)cc1 [CBK263354] | 90.2
CC1CN(S(=O)(=O)c2ccc3c(c2)C(=O)c2cc(S(=O)(=O)N4CC(C)OC(C)C4)ccc2-3)CC(C)O1 (stereo not shown) [CBK263355] | 101
O=[N+]([O-])c1ccc2nc(Sc3nc4ccccc4[nH]3)sc2c1 [CBK263356] | 89.8
O=C(O)CCN1C(=O)c2ccc(Oc3ccc([N+](=O)[O-])cc3)cc2C1=O [CBK263357] | 96.2
CC(C)CCc1c(O)nc(SCCN2CCOCC2)n(-c2ccccc2)c1=O [CBK263363C] | 85.5
C=CCN(c1ccc(C(=O)O)cc1)S(=O)(=O)c1ccc(/C=C/C(=O)O)cc1 [CBK263364] | 95.8
C=C(Br)Cn1c(COc2cccc3ccccc23)nc2ccccc21 [CBK263373] | 97.3
N=C(N)NS(=O)(=O)c1ccc(N/C=C\C(=O)c2ccc3ccccc3c2)cc1 [CBK263374] | 98.6

Compound | viability at 28.5 h, 10 µM [%]
COc1cc(NS(=O)(=O)c2ccc(N/C=C3/CCc4ccccc4C3=O)cc2)nc(OC)n1 [CBK263376] | 82.4
COc1ccc(CN2CCN(CCCc3ccccc3)CC2)c(OC)c1 [CBK263378] | 95.1
CC(C)CCc1c(O)nc(SCCN(C)C)[nH]c1=O [CBK263382] | 95.3
O=C(C1=C(O)C(=O)N(Cc2cccnc2)C1c1cccc([N+](=O)[O-])c1)c1ccccc1 (stereo not shown) [CBK263383] | 107
Cc1n[nH]c(C)c1CCC(=O)N/N=C\c1cccc(Oc2ccccc2)c1 [CBK263384] | 98.8
CN(C)c1ccc(C2C(C(=O)c3ccccc3)=C(O)C(=O)N2CCCC(=O)O)cc1 (stereo not shown) [CBK263393] | 96.4
Cc1n[nH]c(C)c1CCC(=O)N/N=C\c1ccc(Cl)c(Cl)c1 [CBK263395] | 97.4
Cn1cccc1-c1cc(C(=O)N/N=C/c2cccc(O)c2)[nH]n1 [CBK263397] | 89.9
CCOc1ccc(CN2CCN(C(=O)c3ccc(-c4ccccc4)cc3)CC2)cc1 [CBK263399] | 99.9
O=C(c1cc(S(=O)(=O)N2CCCCC2)c(Cl)cc1N1CCOCC1)N1CCOCC1 [CBK263400] | 82.5
CC(C)CNc1cc(Cl)c(S(=O)(=O)NCC(C)C)cc1C(=O)O [CBK263405] | 93.5
O=C(CN1CCN(CCN2C(=O)c3cccc4cccc(c34)C2=O)CC1)c1ccc(F)cc1 [CBK263414B] | 94.5
O=C(Nc1ccc(-c2nc3ccccc3o2)c(O)c1)c1ccc(-c2ccc([N+](=O)[O-])cc2)o1 [CBK263416] | 108
COc1ccc(/N=C2\NC(=O)/C(=C\C=C\c3ccccc3)S2)cc1 [CBK263417] | 94.2
O=[N+]([O-])c1cccc(-c2csc(N/N=C\c3cccc(O)c3)n2)c1 [CBK263418] | 95.5
O=C(Nc1ccc2oc(-c3cccnc3)nc2c1)c1cccc(OCc2ccccc2)c1 [CBK263420] | 94.4
CCc1ccc2oc(-c3ccc(NC(=O)COc4ccc(Cl)cc4Cl)cc3O)nc2c1 [CBK263424] | 104
O=C(Nc1ccccc1)C(N1CCCCC1)N1CCCCC1 [CBK263425] | 105
O=C(Nc1ccc2nc(SCc3ccc([N+](=O)[O-])cc3)sc2c1)c1ccccc1 [CBK263427] | 98.4
COc1ccc(CC(=O)Nc2ccc(S(N)(=O)=O)cc2)cc1OC [CBK263429] | 92

Source: paper PMC12040169 (PLOS Biology, 2025)
